# Counter-ions that a name gives are not always drawn.
# Tested on: Mouse preadipocyte strain 3T3-L1
# Experiment: Inhibition of differentiation as an indication of acetic acid uptake
# Assay type: cell-based
# Conditions: control (0.01% dimethylsulfoxide) = 100%; for activity at 0.1 µM: Mus musculus, 3T3-L1, 0.1 μM test substance, read-out: Rate of Uptake (%) of [2-14C] acetic acid; for Rate of Uptake (%) of [2-14C] acetic acid: 0.1 μM test substance
# Outline: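 Differentiation is indexed by 1 hr [2-14C]acetic acid incorporation, measured by scintillation counting and given as uptake relative to 0.01% DMSO control (100%). Mouse 3T3-L1 preadipocytes, pre-grown 10 days, received 0.1 μM test substance throughout a 4-day insulin/IBMX/dexamethasone induction, followed by 2 days' maintenance culture.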
Compound,activity at 0.1 µM [%],Rate of Uptake (%) of [2-14C] acetic acid [%]
"O=C(Nc1nc2cc(Cl)ccc2o1)c1cc([N+](=O)[O-])ccc1Cl [Example 75, N-(5-Chlorobenzoxazol-2-yl)-(2-chloro-5-nitrophenyl)carboxamide]",80.1,
"O=C(Nc1ncc(Br)cn1)c1cc([N+](=O)[O-])ccc1Cl [Example 77, N-(5-Bromopyrimidin-2-yl)-(2-chloro-5-nitrophenyl)carboxamide]",62.7,
"O=C(Nc1nc(Cl)cc(Cl)n1)c1cc([N+](=O)[O-])ccc1Cl [Example 83, N-(4,6-Dichloropyrimidin-2-yl)-(2-chloro-5-nitrophenyl)carboxamide]",75.6,
"Nc1ccc(-c2ccc(NC(=O)c3cc([N+](=O)[O-])ccc3Cl)cc2)cc1 [Example 88, N-[4-(4-Aminophenyl)phenyl]-(2-chloro-5-nitrophenyl)carboxamide mono-hydrochloride]",56.4,
O=C(Nc1ccc(Cl)nn1)c1cc([N+](=O)[O-])ccc1Cl [Example 89],,58.1
"Cc1c(C)c2c(c(C)c1O)C(=O)CC(C)(COc1ccc(NC(=O)c3cc([N+](=O)[O-])ccc3Cl)cc1)O2 (stereo not drawn) [Example 92, N-[4-(6-Hydroxy-2,5,7,8-tetramethyl-4-oxochroman-2-ylmethoxy)phenyl]-(2-chloro-5-nitrophenyl)carboxamide]",63,
"CS(=O)(=O)Nc1ccc(-c2ccc(NC(=O)c3cc([N+](=O)[O-])ccc3Cl)cc2)cc1 [Example 93, N-[4-[4-(Methanesulfonylamino)phenyl]phenyl]-(2-chloro-5-nitrophenyl)carboxamide]",90.3,
"Cc1ccc(S(=O)(=O)Nc2ccc(-c3ccc(NC(=O)c4cc([N+](=O)[O-])ccc4Cl)cc3)cc2)cc1 [Example 94, N-[4-[4-(4-Toluenesulfonylamino)phenyl]phenyl]-(2-chloro-5-nitrophenyl)carboxamide]",80.4,
"Cc1nnc(NS(=O)(=O)c2ccc(NC(=O)c3cc([N+](=O)[O-])ccc3Cl)cc2)s1 [Example 101, N-[4-[(5-Methyl-[1,3,4]thiadiazol-2-yl)aminosulfonyl]phenyl]-(2-chloro-5-nitrophenyl)carboxamide]",78.3,
"Cc1noc(NS(=O)(=O)c2ccc(NC(=O)c3cc([N+](=O)[O-])ccc3Cl)cc2)c1C [Example 104, N-[4-[(3,4-Dimethylisoxazol-6-yl)aminosulfonyl]phenyl]-(2-chloro-5-nitrophenyl)carboxamide]",89.8,
"O=C(Nc1ccc(N2CCCCC2)cc1)c1cc([N+](=O)[O-])ccc1Cl [Example 114, N-[4-(Piperidin-1-yl)phenyl]-(2-chloro-5-nitrophenyl)carboxamide]",79,
"CC(=O)Nc1ccc(-c2ccc(NC(=O)c3cc([N+](=O)[O-])ccc3Cl)cc2)cc1 [Example 118, N-[4-(4-Acetylaminophenyl)phenyl]-(2-chloro-5-nitrophenyl)carboxamide]",79.6,
"O=C(Nc1ccc(-c2ccc(NC(=O)c3cc([N+](=O)[O-])ccc3Cl)cc2)cc1)c1ccccc1 [Example 120, N-[4-(4-Benzoylaminophenyl)phenyl]-(2-chloro-5-nitrophenyl)carboxamide]",64.6,
"Cc1ccc(C(=O)Nc2ccc(NC(=O)c3cc([N+](=O)[O-])ccc3Cl)cc2)cc1 [Example 121, N-[4-(4-Methylbenzoyl)aminophenyl]-(2-chloro-5-nitrophenyl)carboxamide]",81,
"O=C(Nc1ccc(-c2ccc(NC(=O)c3cc([N+](=O)[O-])ccc3Cl)cc2)cc1)c1cccnc1 [Example 124, N-[4-[4-(Pyridin-3-ylcarbonylamino)phenyl]phenyl]-(2-chloro-5-nitrophenyl)carboxamide]",60,
"O=C(Nc1cnccn1)c1cc([N+](=O)[O-])ccc1Cl [Example 140, N-(Pyrazin-2-yl)-(2-chloro-5-nitrophenyl)carboxamide]",72.4,
"Cc1ccc2nc(NC(=O)c3cc([N+](=O)[O-])ccc3Cl)sc2c1 [Example 141, N-(6-Methybenzothiazol-2-yl)-(2-chloro-5-nitrophenyl)carboxamide]",,78.7
"Cl.O=C(Nc1ccncc1)c1cc([N+](=O)[O-])ccc1Cl [Example 146, N-(Pyridin-4-yl)-(2-chloro-5-nitrophenyl)carboxamide Hydrochloride]",60,
"Cc1ccc(C(=O)Nc2nc3ccc(NC(=O)c4cc([N+](=O)[O-])ccc4Cl)cc3s2)cc1 [Example 149, N-[2-(4-Methylbenzoylamino)benzothiazol-6-yl]-(2-chloro-5-nitrophenyl)carboxamide]",76.5,
"CCc1ccc(S(=O)(=O)Nc2ccc(NC(=O)c3cc([N+](=O)[O-])ccc3Cl)cc2)cc1 [Example 150, N-[4-(4-Ethylbenzenesulfonylamino)phenyl]-(2-chloro-5-nitrophenyl)carboxamide]",82.9,
"O=C(Nc1ccc(S(=O)(=O)N2CCCCC2)cc1)c1cc([N+](=O)[O-])ccc1Cl [Example 151, N-[4-(Piperidyisulfonyl)phenyl]-(2-chloro-5-nitrophenyl)carboxamide]",62.3,
"O=C(Nc1ccc(S(=O)(=O)N2CCOCC2)cc1)c1cc([N+](=O)[O-])ccc1Cl [Example 153, N-[4-(Morpholin-4-ylsulfonyl)phenyl]-(2-chloro-5-nitrophenyl)carboxamide]",70.2,
N-[3-(Pyrrolidinylsulfonyl)phenyl]-(2-chloro-5-nitrophenyl)carboxamide [Example 154],,67.4
N-[4-(4-Methylbenzoylamino)phenyl]phenyl]-(2-chloro-5-nitrophenyl)carboxamide [Example 122],,75.4

# — US20030134859A1 (SANKYO COMPANY, LIMITED, priority 2000, published 2003)
